Results from EP2468746A1, “Benzothiazinone compounds and their use as anti-tuberculosis agents” (priority 2010, dated 2012).
≈ marks a conversion by molar mass, not a printed value. Where “and” joins values, the source holds several entries; their conditions need not be identical. Equal values may be shown once. Read-outs that look alike come from different tables or passages of the source.

Experiments:
M fort B = assay: MIC assay, broth microdilution with resazurin; format: cell-based; conditions: for MIC: read-out: MIC M fort B
Procedure: (§1) The protocol used is based upon that detailed by the CLSI (Clinical and Laboratory Standards Institute (CLSI) 2006. Methods for Dilution Antimicrobial Susceptibility Tests for Bacteria that Grow Aerobically; Approved Standard. 7th edn. Document M7-A6. Clinical and Laboratory Standards Institute, Wayne, PA.).
(§2) The compounds are dissolved in DSMO in a concentration of 1 mg/ml and further diluted in water to achieve the final concentration, which is used as the highest concentration for determination of MIC. This highest concentration is filled in the first row of the microtiter plate and further diluted in the culture medium for the mycobacteria (Mueller-Hinton Broth and Middlebrook 7H9 broth). All solutions are freshly prepared under sterile conditions.
(§3) Ciprofloxacin, Isoniazid and Rifampicin can be used as reference compounds for control of the assay as well as a solvent control.
(§4) Minimal inhibitory concentrations (MIC) are determined according to the CLSI guidelines using the broth microdilution method. 50 µl of the compound solution are serially diluted directly in the microtiter plate by factor two with MHB or 7H9 media. Then the wells are inocalated with 50 µl of test organisms in MHB/7H9 to give a final concentration of 5x10^5 CFU/ml. After that the microtiter plates are incubated at 37°C for 48 h. Then 30 µl of resazurin solution is added to each well and plates are allowed to incubate at 37°C for additional 24 hrs. A change from blue to pink colour indicates reduction of resazurin and therefore bacterial growth. The MIC is defined as the lowest drug concentration that prevents this colour change.
(§5) Resazurin salt powder (Sigma) is prepared at 0.01 % (wt/vol) in distilled water, sterilized by filtration through a 0.22 µm membrane and stored at 4°C for a week.

M smeg 5G987 = assay: MIC assay, broth microdilution with resazurin; format: cell-based, Mycobacterium smegmatis; conditions: for MIC: Mycolicibacterium smegmatis
Procedure: as §1, §2, §3, §4, §5

Stability in plasma (H) = conditions: first value of the cell
[1] = system: Mycobacterium smegmatis, ATCC 700084; assay: MIC assay, broth microdilution with resazurin; format: cell-based; conditions: Mycolicibacterium smegmatis, ATCC700084; head carries superscript IMB; read-out: MIC M smeg 700084
Procedure: as §1, §2, §3, §4, §5

M aurum SB66 = assay: MIC assay, broth microdilution with resazurin; format: cell-based; conditions: for activity against M. aureum strain SB66: strain resistant against agents that target decaprenylphosporyl-β-D-ribose 2'-epimerase
Procedure: as §1, §2, §3, §4, §5

M vaccae 10670 = assay: MIC assay, broth microdilution with resazurin; format: cell-based
Procedure: as §1, §2, §3, §4, §5

M tb MDR (BACTEC) = assay: microbe, parasite or virus in culture; format: cell-based, M. tuberculosis; conditions: for MIC: Mycobacterium tuberculosis
Stability in plasma (M) = conditions: second value of the cell
K-562 = format: cell-based
Procedure: (§6) Test cells (see Table below for details) are seeded as 1x10^4 cells per well in a clear 96 well plate in a final volume of 100 µl in media. Cells are incubated for 24 hours at 37°C, 5% CO2 to allow cells to attach to the plates.
(§7) The compounds of the present invention are added in triplicate in a range of concentrations. For compound A e.g., the concentration started from 100µM,...and then 2-fold diluted to 0.78µM. Colistin and Tamoxifen were applied as controls.
(§8) The cells are incubated for 24 hours at 37°C, 5% CO2. MTT (3-(4,5-Dimethylthiazol-2-yl)-2,5-diphenyltetrazolium bromide) (Sigma) (dissolved in PBS) is added to each well to a final concentration of 0.4 mg/mL. The plate is then incubated for 1 hours at 37°C, 5% CO2. Media is removed, and crystals are resuspended in 60 µl of DMSO. Shaking the plate at room temperature for 10 minutes dissolves the formazan crystals, and the absorbance is then read at 570 nm.
(§9) Results are presented as the average percentage of control ± SD for each set of duplicate wells using the following equation: Percent Viability = (ABSTEST - ABS5%DMSO/ / ABSUNTREATED -ABS5%DMSO)*100. A 1% DMSO 'vehicle' control is also included to monitor the effect of DMSO on the cells (all pure compounds are diluted in 10 % DMSO, so final assay concentration is 1%).

HUVEC = format: cell-based
Procedure: as §6, §7, §8, §9

HeLa = assay: Cytotoxicity assay (MTT); format: cell-based; conditions: 24 hours, read-out: CytoTox HeLa (CC50)
Procedure: as §6, §7, §8, §9

HEK293 = assay: Cytotoxicity assay (MTT); format: cell-based; conditions: 24 hours, read-out: CytoTox HEK293 (CC50)
Procedure: as §6, §7, §8, §9

HepG2 = assay: Cytotoxicity assay (MTT); format: cell-based; conditions: 24 hours, read-out: CytoTox HepG2 (CC50)
Procedure: as §6, §7, §8, §9

mycobacteria = conditions: comparison values, strain not named; cited from earlier work
M. tuberculosis H37Rv = assay: BTZ efficacy in the acute animal model (mouse infection); format: in vivo; conditions: BALB/c mice, 5 x 10^6 CFU, gavage 37.5 or 300 mg per kg, once daily, 5 times/week, four weeks
Procedure: BTZ efficacy in vivo can be determined in a standard mouse infection model according to e.g. the following protocol. BALB/c mice are infected with M. tuberculosis H37Rv at a bacillary load of 5 x 10^6 CFU by injection into the eye venous sinus, 10 BALB/c mice per group. The first day of the treatment is day 8 after the infection. Mice are dosed by gavage with 37.5, or 300 mg of BTZ, per kg body weight, in carboxymethyl cellulose formulation (0.25%), once daily, 5 times/week, for four weeks. Negative control mice died 25-28 days after infection.

physchem = conditions: 20 °C, pH 7.4, aqueous buffer, kinetic from dmso stock
Cytotoxicity assay (MTT) = format: cell-based; conditions: human
Procedure: as §6, §7, §8, §9

[2] = 5G987, read-out: MIC M smeg 5G987

Question: What does the source list for `O=c1nc(N2CCN(Cc3ccccc3)CC2)sc2c([N+](=O)[O-])cc(C(F)(F)F)cc12` [Cpd 7 of WO 2009/010163, reference compound]?
Answer: MIC (M fort B): 0.05 µg/mL (≈ 0.111 µM); MIC (M smeg 5G987; [2]): 0.05 µg/mL

Question: What does the source list for `CC1COC2(CCN(c3nc(=O)c4cc(C(F)(F)F)cc([N+](=O)[O-])c4s3)CC2)O1` (stereo not shown) [Cpd 1 of WO 2007/134625, reference compound]?
Answer: Stability Plasma (H/M) (Stability in plasma (H)): 107%; MIC [1]: 0.008 µg/mL (≈ 0.0185 µM); MIC M aurum SB66 (M aurum SB66): >100 µg/mL; activity against M. aureum strain SB66 (M aurum SB66): neither compound A nor the Reference compound I are active; MIC M fort B (M fort B): 0.00156 µg/mL (≈ 0.00362 µM); MIC (M vaccae 10670): 0.0004 µg/mL (≈ 0.000927 µM); MIC M tb MDR (BACTEC) (M tb MDR (BACTEC)): ≤0.015 µg/mL; Stability Plasma (H/M) (Stability in plasma (M)): 97%; CytoTox K-562 (GC50) (K-562): 11 µM; CytoTox HUVEC (GC50) (HUVEC): 8 µM; MIC M smeg 5G987 (M smeg 5G987): 0.00312 µg/mL (≈ 0.00723 µM); CC50 (HeLa): > 50 µM; CC50 (HEK293): > 100 µM; CC50 (HepG2): > 100 µM

Question: Which “MIC of the existing TB drugs” value (mycobacteria) does the source give for `NNC(=O)c1ccncc1` [isoniazid] here?
Answer: The value was 0.02 to 0.2 µg/mL.

Question: For `CN(C(=O)CN1CCN(c2nc(=O)c3cc(C(F)(F)F)cc([N+](=O)[O-])c3s2)CC1)c1ccccc1` [Compound A], which “Stability Plasma (H/M)” value (Stability in plasma (H)) is on record?
Answer: Its value is 95%.

Question: And the “efficacy, life of the treated mice” value (M. tuberculosis H37Rv)?
Answer: The value was “very effective in this model and significantly prolonged the life of the treated mice”.

Question: And the MIC [1]?
Answer: The MIC was 0.015 µg/mL (≈ 0.0296 µM).

Question: What about the MIC (M aurum SB66) of the same compound?
Answer: The MIC was > 100 µg/mL.

Question: And the “activity against M. aureum strain SB66” value (M aurum SB66)?
Answer: The value was “neither compound A nor the Reference compound I are active”.

Question: What about the MIC (M fort B) of the same compound?
Answer: The MIC was 0.0125 µg/mL (≈ 0.0246 µM).

Question: And the MIC (M vaccae 10670)?
Answer: Its MIC is 0.00312 µg/mL (≈ 0.00615 µM).

Question: And the solubility at 20 h (physchem)?
Answer: Its solubility at 20 h is 12 µM (≈ 6.09 µg/mL).

Question: And the MIC (M tb MDR (BACTEC); read-out: MIC M tb MDR (BACTEC))?
Answer: Its MIC is 0.03 µg/mL (≈ 0.0591 µM).

Question: What about the MIC (M tb MDR (BACTEC); read-out: MIC against MDR M. tuberculosis) of the same compound?
Answer: The MIC was 0.03 µg/mL and 0.059 µM.

Question: And the “Stability Plasma (H/M)” value (Stability in plasma (M))?
Answer: Its value is 115%.

Question: What about the “CytoTox K-562 (GC50)” value (K-562; human, 24 h) of the same compound?
Answer: Its value is 30 µM.

Question: And the “CytoTox HUVEC (GC50)” value (HUVEC; human, 24 h)?
Answer: Its value is 18 µM.

Question: What about the MIC (M smeg 5G987; 5G987, molar value in brackets, strain not named, read-out: MIC against Mycobacterium smegmatis) of the same compound?
Answer: The MIC was 0.025 µM.

Question: And the MIC (M smeg 5G987; [2])?
Answer: The MIC was 0.0125 µg/mL.

Question: What about the MIC (M smeg 5G987; 5G987, read-out: MIC against Mycobacterium smegmatis) of the same compound?
Answer: The MIC was 0.012 µg/mL.

Question: What about the CC50 at 24 h (Cytotoxicity assay (MTT); HEK293 cells, read-out: CytoTox HEK293 (CC50)) of the same compound?
Answer: Its CC50 at 24 h is > 100 µM.

Question: And the CC50 at 24 h (Cytotoxicity assay (MTT); HeLa cells, read-out: CytoTox HeLa (CC50))?
Answer: Its CC50 at 24 h is 39 µM.

Question: What about the CC50 at 24 h (Cytotoxicity assay (MTT); HepG2 cells, read-out: CytoTox HepG2 (CC50)) of the same compound?
Answer: The CC50 at 24 h was > 100 µM.

Question: For `CC[C@@H](CO)NCCN[C@@H](CC)CO` [ethambutol], which “MIC of the existing TB drugs” value (mycobacteria) is on record?
Answer: Its value is 1 to 5 µg/mL.
